The values below come from EP4700027A1, “CRYSTALLINE FORM OF NITROGEN-CONTAINING TETRACYCLIC COMPOUND AND PREPARATION METHOD THEREFOR” (Jiangsu Hengrui Pharmaceuticals Co., Ltd., priority 2023, dated 2024).

One data set deals with H358 cells. In words: H358 cell proliferation assay (CellTiter-Glo). In kind it is cell-based. The following applies: Homo sapiens, NCI-H358; inhibitory activity against H358 cell proliferation, 120 h incubation. As for the experimental part: The inhibitory activity of the compound of the present disclosure against H358 cell proliferation was measured. Below is a brief description of the experimental method: H358 cells (ATCC, CRL-5807) were cultured in RPMI1640 medium (Hyclone, SH30809.01) containing 10% fetal bovine serum (Corning, 35-076-CV) (i.e., complete medium). On the first day of the experiment, H358 cells were seeded into a 96-well plate at a density of 1200 cells/well using complete medium, with 100 µL of cell suspension per well, and the plate was incubated overnight in a 5% CO2 cell incubator at 37 °C. On the second day, the test compound, prepared in complete medium and serially diluted, was added at 10 µL/well. The final concentrations of the compound were 9 concentration points obtained by a 5-fold serial dilution from 10 µM. A blank control containing 0.5% DMSO was set up. The plate was incubated for 120 h in a 5% CO2 cell incubator at 37 °C. On the seventh day, the 96-well cell plate was removed from the incubator, and Cell Titer-Glo® Luminescent Cell Viability Assay (Promega, G7573) was added at 50 µL/well. After the plate was left to stand at room temperature for 10 min, the luminescence signal values were measured using a multifunctional microplate reader (PerkinElmer, EnVision® 2105), and the IC50 value for the inhibitory activity of the compound was calculated using Graphpad Prism software. Table 1. […]
On the technique in general: In ATP-based viability assays light output follows the ATP content of the culture.

For another data set, the system named is MIA PaCa-2 cells. In words: MIA PaCa-2 cell proliferation assay (CellTiter-Glo). In kind it is cell-based. As to conditions: Homo sapiens; inhibitory activity against MIA PaCa-2 cell proliferation, 72 h incubation. The protocol: The inhibitory activity of the compound of the present disclosure against MIA PaCa-2 cell proliferation was measured. Below is a brief description of the experimental method: MIA PaCa-2 cells (ATCC, CRL-1420) were cultured in DMEM/HIGH GLUCOSE medium (GE, SH30243.01) containing 10% fetal bovine serum (Corning, 35-076-CV) and 2.5% horse serum (Beyotime Biological Tech., C0262) (i.e., complete medium). On the first day of the experiment, MIA PaCa-2 cells were seeded into a 96-well plate at a density of 500 cells/well using complete medium, with 90 µL of cell suspension per well, and the plate was incubated overnight in a 5% CO2 cell incubator at 37 °C. On the second day, the test compound, prepared in complete medium and serially diluted, was added at 10 µL/well. The final concentrations of the compound were 9 concentration points obtained by a 5-fold serial dilution from 10 µM. A blank control containing 0.5% DMSO was set up. The plate was incubated for 72 h in a 5% CO2 cell incubator at 37 °C. […] After the plate was left to stand at room temperature for 10 min, the luminescence signal values were measured using a multifunctional microplate reader (PerkinElmer, EnVision2015). The IC50 value for the inhibitory activity of the compound was calculated using Graphpad Prism software. […]

A short description of data set [1]: Dynamic vapor sorption (DVS) hygroscopicity testing. In kind it is physicochemical. The source says:
According to the description of hygroscopicity characteristics and the definitions of hygroscopic weight gains in "General Rule 9103, Guidelines for Hygroscopicity Trials for Pharmaceuticals" in the Chinese Pharmacopoeia, Volume IV, 2015 Edition, • deliquescent: sufficient water is absorbed to form a liquid; • extremely hygroscopic: the hygroscopic weight gain is not less than 15%; • hygroscopic: the hygroscopic weight gain is less than 15% but not less than 2%; • slightly hygroscopic: the hygroscopic weight gain is less than 2% but not less than 0.2%; nonhygroscopic or practically nonhygroscopic: the hygroscopic weight gain is less than 0.2%.
DVS refers to dynamic vapor sorption: The analysis was performed using SMS DVS Advantage; at 25 °C, the humidity was changed as follows: 50%-95%-0%-95%-50%, in steps of 10% (5% for the last step) (specific humidity ranges are shown in corresponding patterns, and those listed here were used in most cases); the criterion was dm/dt being not greater than 0.002%.

Data set [2] in a line: Influencing factor stability study on crystal forms (light, high temperature, high humidity, 30 days). In kind it is physicochemical.

The structures appear in SMILES notation.

On to `C=CC(=O)N1CCN2C(=O)c3cc(F)c(-c4ccc(F)c5sc(N)c(C#N)c45)c4c(Cl)nn(c34)CC[C@H]2C1` (atropisomer, axis not shown) [Compound 1, (S)-4-((S)-10-acryloyl-4-chloro-2-fluoro-14-oxo-8,8a,9,10,11,12-hexahydro-7H,14H-pyrazino[1',2':5,6][1,5]diazocino[3,2,1-hi]indazol-3-yl)-2-amino-7-fluorobenzo[b]thiophene-3-carbonitrile], for which the IC50 with H358 cells was 740 pM; with MIA PaCa-2 cells, 280 pM.
As for `C=CC(=O)N1CCN2C(=O)c3cc(F)c(-c4ccc(F)c5sc(N)c(C#N)c45)c4c(Cl)nn(c34)CC[C@H]2C1` [crystal form N], the hygroscopic weight gain result in data set [1] (accelerated experimental conditions (70% RH)) is “about 3.06%”; in data set [1] (extreme conditions (90% RH)) it was “about 3.18%”; in data set [1] (normal storage conditions (25 °C and 60% RH)), “about 3.00%”. The “crystal form re-identified after DVS testing” value in data set [1] (after DVS testing) is “did not change”. Moreover, in data set [1] (humidity changing from 0% to 95% RH), the “desorption process of the sample versus its adsorption process” value is reported as “substantially overlapped”. Moreover, the Color and state entry in data set [2] (60 °C, 30 days) is recorded as “Off-white solid”; in data set [2] (75% RH, 7 days) it was “Off-white solid”; in data set [2] (75% RH, 14 days) it was “Off-white solid”; in data set [2] (75% RH, 30 days), “Off-white solid”. The Crystal form result in data set [2] (60 °C, 30 days) is recorded as “Did not change”; in data set [2] (75% RH, 7 days), “Did not change”; in data set [2] (75% RH, 14 days) it was “Did not change”; in data set [2] (75% RH, 30 days), “Did not change”. Moreover, the “Purity (%)” value worked out at 98.9% in data set [2] (60 °C, 30 days); 99.2% in data set [2] (75% RH, 7 days); 99.1% in data set [2] (75% RH, 14 days); 99.1% in data set [2] (75% RH, 30 days).

Broadly, the IC50 is the point on the concentration scale where inhibition reaches its midpoint. Low readings indicate greater potency in that assay, high ones weaker potency in that assay.
